From US7964623B2, “Tricyclic benzopyrane compound” (Nissan Chemical Industries Ltd., priority 2004, dated 2011)

system: atrium; experiment: Effects on the atrial effective refractory period (S1-S2 extrastimulus technique during bilateral vagal nerve stimulation) in anesthetized beagles; type: in vivo; conditions: intravenous, 0.3 mg/kg, from 5 minutes after administration, basic cycle length 300 msec
Experimental: Effects on the Effective Refractory Period
Beagles were anesthetized with pentobarbital sodium and thoracotomy was done along the median line under a respirator and the incision was made on the pericardium to expose the heart. An electrocardiogram (ECG) was recorded using bipolar electrodes attached to the surface of the right atrial free wall, right atrial auricle, and right ventricular free wall. The vagal nerves were stimulated using an electrostimulation device with Nichrome wires inserted into the vagal nerves in the neck bilaterally. The conditions for electrostimulation to the vagal nerves were set such that the RR intervals on ECG were prolonged by about 100 msec compared with those before the stimulation was started.
Atrial and ventricular effective refractory periods were determined by S1-S2 extrastimulus technique at basic cycle length of 300 msec during bilateral vagal nerve stimulation, using programmable electric stimulator. A train of 10 basic stimuli (S1) was followed by a premature extrastimulus (S2) at 2 times diastolic threshold.
For evaluation of drug effects, the atrial and ventricular effective refractory periods were determined before drug administration, then respective compound was administrated intravenously at the dose of 0.3 mg/kg or 0.6 mg/kg, and the atrial and ventricular effective refractory periods were determined from 5 minutes after the administration.
The results were shown as the prolongation time on the atrial and ventricular effective refractory periods, i.e. [effective refractory period after drug administration]−[effective refractory period before drug administration] (msec).

Structure (SMILES) | Atrial Refractory Period (prolongation time on the atrial effective refractory period) [ms]
CCCCCN[C@H]1c2cc3nc(Cl)cc(C)c3cc2OC(C)(C)[C@@H]1O.Cl (relative stereo) [Synthesis Example 52, (3R*,4S*)-7-chloro-2,2,9-trimethyl-4-(pentylamino)-3,4-dihydro-2H-pyrano[2,3-g]quinolin-3-ol hydrochloride] | 28
Cc1cc(Cl)nc2cc3c(cc12)OC(C)(C)[C@H](O)[C@H]3NCCc1ccc(Cl)cc1 (relative stereo) [Synthesis Example 25, (3R*,4S*)-7-chloro-4-{[2-(4-chlorophenyl)ethyl]amino}-2,2,9-trimethyl-3,4-dihydro-2H-pyrano[2,3-g]quinolin-3-ol] | 27
CC1(C)Oc2cc3nccnc3cc2[C@H](NCCc2ccccc2F)[C@H]1O.Cl (relative stereo) [Synthesis Example 60, (3R*,4S*)-4-{[2-(2-fluorophenyl)ethyl]amino}-2,2-dimethyl-3,4-dihydro-2H-pyrano[2,3-g]quinoxalin-3-ol hydrochloride] | 22
Cc1cc(Cl)nc2cc3c(cc12)OC(C)(C)[C@H](O)[C@H]3NCC(O)c1ccccc1 (relative stereo) [Synthesis Example 27, (3R*,4S*)-7-chloro-4-[(2-hydroxy-2-phenylethyl)amino]-2,2,9-trimethyl-3,4-dihydro-2H-pyrano[2,3-g]quinolin-3-ol] | 32
Cc1cc(C#N)nc2cc3c(cc12)OC(C)(C)[C@H](O)[C@H]3NCCc1ccccc1.O=C(O)/C=C\C(=O)O (relative stereo) [Synthesis Example 14, (3R*,4S*)-3-hydroxy-2,2,9-trimethyl-4-[(2-phenylethyl)amino]-3,4-dihydro-2H-pyrano[2,3-g]quinoline-7-carbonitrile 1 maleate] | 27
Cc1cc(Cl)nc2cc3c(cc12)OC(C)(C)[C@H](O)[C@H]3NCCc1ccccc1F (relative stereo) [Synthesis Example 24, (3R*,4S*)-7-chloro-4-{[2-(2-fluorophenyl)ethyl]amino}-2,2,9-trimethyl-3,4-dihydro-2H-pyrano[2,3-g]quinolin-3-ol] | 23
CC1(C)Oc2cc3nccnc3cc2[C@H](NCCc2ccccc2)[C@H]1O.O=C(O)/C=C\C(=O)O (relative stereo) [Synthesis Example 59, (3R*,4S*)-7,7-dimethyl-9-[(2-phenylethyl)amino]-8,9-dihydro-7H-pyrano[2,3-g]quinoxalin-8-ol 1 maleate] | 22
CN1C(=O)COc2cc3c(cc21)OC(C)(C)[C@H](O)[C@H]3NCCc1ccccc1.Cl (relative stereo) [Synthesis Example 73, (7R*,8S*)-7-hydroxy-4,6,6-trimethyl-8-(2-phanylethylamino)-4,6,7,8-tetrahydro-1,5-dioxa-4-aza-anthracene-3-one hydrochloride] | 31
Cc1cc(Cl)nc2cc3c(cc12)OC(C)(C)[C@H](O)[C@H]3NCCc1ccc(N)cc1 (relative stereo) [Synthesis Example 26, (3R*,4S*)-4-{([2-(4-aminophenyl)ethyl]amino}-7-chloro-2,2,9-trimethyl-3,4-dihydro-2H-pyrano[2,3-g]quinolin-3-ol] | 24
Cc1cc(Cl)nc2cc3c(cc12)OC(C)(C)[C@H](O)[C@H]3NCCC1=CCCC1 (relative stereo) [Synthesis Example 48, (3R*,4S*)-7-chloro-4-[2-(1-cyclopentenylethyl)amino]-2,2,9-trimethyl-3,4-dihydro-2H-pyrano[2,3-g]quinolin-3-ol] | 23
CCCC(O)CN[C@H]1c2cc3nc(Cl)cc(C)c3cc2OC(C)(C)[C@@H]1O (relative stereo) [Synthesis Example 58, (3R*,4S*)-7-chloro-4-[(2-hydroxypentyl)amino]-2,2,9-trimethyl-3,4-dihydro-2H-pyrano[2,3-g]quinolin-3-ol] | 28
CC1(C)Oc2cc3nccnc3cc2[C@H](NCCc2ccc(F)cc2)[C@H]1O.Cl (relative stereo) [Synthesis Example 61, (3R*,4S*)-9-{[2-(4-fluorophenyl)ethyl]amino}-7,7-dimethyl-8,9-dihydro-7H-pyrano[2,3-g]quinoxalin-8-ol hydrochloride] | 20
Cc1cc(Cl)nc2cc3c(cc12)OC(C)(C)[C@H](O)[C@H]3NCCc1ccc(F)cc1 (relative stereo) [Synthesis Example 23, (3R*,4S*)-7-chloro-4-{[2-(4-fluorophenyl)ethyl]amino}-2,2,9-trimethyl-3,4-dihydro-2H-pyrano[2,3-g]quinolin-3-ol] | 22
Cc1cc(Cl)nc2cc3c(cc12)OC(C)(C)[C@H](O)[C@H]3NCCc1cccnc1 (relative stereo) [Synthesis Example 41, (3R*,4S*)-7-chloro-2,2,9-trimethyl-4-{[2-(3-pyridyl)ethyl]amino}-3,4-dihydro-2H-pyrano[2,3-g]quinolin-3-ol] | 31
Cc1cc(Cl)nc2cc3c(cc12)OC(C)(C)[C@H](O)[C@H]3NCCC1CCCC1 (relative stereo) [Synthesis Example 47, (3R*,4S*)-7-chloro-4-[2-(cyclopentylethyl)amino]-2,2,9-trimethyl-3,4-dihydro-2H-pyrano[2,3-g]quinolin-3-ol] | 24
CC1(C)Oc2cc3c(cc2[C@H](NCCc2ccccc2)[C@H]1O)OCC(=O)N3 (relative stereo) [Synthesis Example 71, (7R*,8S*)-7-hydroxy-6,6-dimethyl-8-(2-phenylethyl)amino]-4,6,7,8-tetrahydro-1,5-dioxa-4-aza-anthracene-3-one] | 31
Cc1cc(CO)nc2cc3c(cc12)OC(C)(C)[C@H](O)[C@H]3NCCc1ccccc1.O=C(O)/C=C\C(=O)O (relative stereo) [Synthesis Example 18, (3R*,4S*)-7-hydroxymethyl-2,2,9-trimethyl-4-[(2-phenylethyl)amino]-3,4-dihydro-2H-pyrano[2,3-g]quinolin-3-ol 1 maleate] | 27
Cc1cc(Cl)nc2cc3c(cc12)OC(C)(C)[C@H](O)[C@H]3NCCc1ccccc1.O=C(O)/C=C\C(=O)O (relative stereo) [Synthesis Example 19, (3R*,4S*)-7-chloro-2,2,9-trimethyl-4-[(2-phenylethyl)amino]-3,4-dihydro-2H-pyrano[2,3-g]quinolin-3-ol 1 maleate] | 26

same assay, conditions: intravenous, 0.6 mg/kg, from 5 minutes after administration, basic cycle length 300 msec

Structure (SMILES) | Atrial Refractory Period (prolongation time on the atrial effective refractory period) [ms]
CC1(C)Oc2cc3c(cc2C(NCCc2ccccc2)C1O)NC(=O)CO3 (stereo not shown) [Synthesis Example 74, 7-Hydroxy-6,6-dimethyl-8-(2-phenylethylamino)-7,8-dihydro-1H,6H-4,5-dioxa-1-aza-anthracene-2-one] | 25
Cc1ccc2cc3c(cc2n1)C(NCCc1ccccc1)C(O)C(C)(C)O3.O=C(O)/C=C\C(=O)O (racemic) [Synthesis Example 4, (±)-trans-2,2,7-Trimethyl-4-[(2-phenylethyl)amino]-3,4-dihydro-2H-pyrano[2,3-g]quinolin-3-ol 3/2 maleate] | 30

system: not given; experiment: not given; conditions: not given

Structure (SMILES) | melting point
CC1(C)Oc2ccc3nc(Cl)ccc3c2[C@@H](NCCc2ccccc2)[C@@H]1O (racemic) [Synthesis Example 9, (±)-trans-8-Chloro-3,3-dimethyl-1-[(2-phenylethyl)amino]-2,3-dihydro-1H-pyrano[3,2-f]quinolin-2-ol] | 141 to 143 °C
Cc1cc(Cl)nc2cc3c(cc12)OC(C)(C)[C@H](O)[C@H]3NCCC1CCOCC1.Cl (relative stereo) | 318 to 320 °C (dec.)
CC1(C)Oc2cc3c(cc2C(NCCc2ccccc2)C1O)N(Cc1ccccc1)C(=O)C3 (stereo not shown) [Synthesis Example 90, 1-Benzyl-7-hydroxy-6,6-dimethyl-8-phenetylamino-3,6,7,8-tetrahydro-1H-pyrano[2,3-f]indole-2-one] | 195 °C (dec.)
Cc1cc(O)nc2cc3c(cc12)OC(C)(C)[C@H](O)[C@H]3NCCc1ccccc1.O=C(O)/C=C\C(=O)O (relative stereo) [Synthesis Example 85, (3R*,4S*)-2,2,9-trimethyl-4-[(2-phenylethyl)amino)]-3,4-dihydro-2H-pyrano[2,3-g]quinolin-3,7-diol 3/2 maleate] | 184 to 188 °C (dec.)
Cc1cc(Cl)[n+]([O-])c2cc3c(cc12)OC(C)(C)[C@H](O)[C@H]3NCCc1ccccc1.Cl (relative stereo) | 174 to 179 °C (dec.)
